Assay results as given in PubChem BioAssay AID248 (DTP/NCI, 2004).
Inconclusive results and toxic doses are left out.

Tested on: L1210 leukemia ip in BDF1 mice, survival T/C
Assay: NCI In Vivo Anticancer Drug Screen. Data for tumor model L1210 Leukemia (intraperitoneal) in B6D2F1 (BDF1) mice
Conditions: endpoint: mean survival time, higher = longer survival
Summary of the method: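 Antitumor effect is assessed in tumor-bearing animals. Survival in the compound arm is compared with a vehicle-dosed control arm and expressed as their quotient.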

[1] = dose: 100.0 mg/kg/injection, schedule: Q01DX001 (ip), vehicle: carboxymethylcellulose (CMC)
[2] = dose: 200.0 mg/kg/injection, schedule: Q01DX001 (ip), vehicle: carboxymethylcellulose (CMC)
[3] = dose: 400.0 mg/kg/injection, schedule: Q01DX001 (ip), vehicle: carboxymethylcellulose (CMC)

C1=CC2CC1C1CSCC21 (centres undefined)
T/C (dose: 0.34 mg/kg/injection, schedule: Q01DX009 (ip), vehicle: saline): 102 % of control
T/C (dose: 0.51 mg/kg/injection, schedule: Q01DX009 (ip), vehicle: saline): 107 % of control
T/C (dose: 0.78 mg/kg/injection, schedule: Q01DX009 (ip), vehicle: saline): 98 % of control
T/C (dose: 1.56 mg/kg/injection, schedule: Q04DX003 (ip), vehicle: saline): 97 % of control
T/C (dose: 3.12 mg/kg/injection, schedule: Q04DX003 (ip), vehicle: saline): 94 % of control

C[N+]1(C)C2C=CCC1CSC2 (centres undefined)
T/C (dose: 15.0 mg/kg/injection, schedule: Q01DX001 (ip), vehicle: saline): 110 % of control

COc1cc2c(c(O)c1OC)c(=O)c1ccccc1n2C
T/C (dose: 60.0 mg/kg/injection, schedule: Q01DX Z (ip), vehicle: carboxymethylcellulose (CMC)): 103 % of control
T/C (dose: 120.0 mg/kg/injection, schedule: Q01DX Z (ip), vehicle: carboxymethylcellulose (CMC)): 102 % of control
T/C (dose: 240.0 mg/kg/injection, schedule: Q01DX Z (ip), vehicle: carboxymethylcellulose (CMC)): 97 % of control

CC(NC(=O)c1ccc(Cl)c(Cl)c1)c1ccc(-c2ccccc2)cc1 (centres undefined)
T/C (dose: 100.0 mg/kg/injection, schedule: Q04DX002 (ip), vehicle: saline with Tween-80): 102 % of control
T/C (dose: 200.0 mg/kg/injection, schedule: Q04DX002 (ip), vehicle: saline with Tween-80): 91 % of control
T/C (dose: 400.0 mg/kg/injection, schedule: Q04DX002 (ip), vehicle: saline with Tween-80): 87 % of control

CCCCCCCC/C=C\CCCCCCCCOCC(O)CO (centres undefined)
T/C (dose: 50.0 mg/kg/injection, schedule: Q01DX009 (ip), vehicle: acetone): 87 % of control
T/C (dose: 100.0 mg/kg/injection, schedule: Q01DX001 (ip), vehicle: saline): 87 % of control
T/C (dose: 100.0 mg/kg/injection, schedule: Q01DX009 (ip), vehicle: acetone): 93 % of control
T/C (dose: 100.0 mg/kg/injection, schedule: Q04DX003 (ip), vehicle: acetone): 100 % of control
T/C (dose: 200.0 mg/kg/injection, schedule: Q01DX001 (ip), vehicle: saline): 91 % of control
T/C (dose: 200.0 mg/kg/injection, schedule: Q04DX003 (ip), vehicle: acetone): 103 % of control
T/C (dose: 400.0 mg/kg/injection, schedule: Q01DX001 (ip), vehicle: saline): 86 % of control

Cc1ccc(C(C)C)c(OCC2=NCCN2C)c1
T/C (dose: 50.0 mg/kg/injection, schedule: Q01DX009 (ip), vehicle: saline): 100 % of control
T/C (dose: 100.0 mg/kg/injection, schedule: Q01DX009 (ip), vehicle: saline): 98 % of control
T/C (dose: 200.0 mg/kg/injection, schedule: Q01DX009 (ip), vehicle: saline): 115 % of control

Cc1nnc(NS(=O)(=O)c2ccc(N=Nc3cc(N=Nc4ccccc4)c(N)nc3N)cc2)s1
T/C [1]: 87 % of control
T/C [2]: 89 % of control
T/C [3]: 97 % of control

Cc1ccc2oc(=O)cc(C)c2c1
T/C [1]: 91 % of control
T/C [2]: 96 % of control
T/C [3]: 93 % of control

CC12CCC(O)CC1=CCC1C2CCC2(C)c3nc(C#N)c(=N)n(O)c3CC12 (centres undefined)
T/C (dose: 100.0 mg/kg/injection, schedule: Q04DX002 (ip), vehicle: Klucel (hydroxypropylcellulose) (HPC)): 94 % of control
T/C (dose: 200.0 mg/kg/injection, schedule: Q04DX002 (ip), vehicle: Klucel (hydroxypropylcellulose) (HPC)): 105 % of control

O=NN(CCCl)C(=O)N[C@H]1CCC[C@@H](O)C1
T/C (dose: 12.0 mg/kg/injection, schedule: Q01DX001 (ip), vehicle: saline with Tween-80): 176 % of control
T/C (dose: 18.0 mg/kg/injection, schedule: Q01DX001 (ip), vehicle: saline with Tween-80): 306 % of control
T/C (dose: 26.0 mg/kg/injection, schedule: Q01DX001 (ip), vehicle: saline with Tween-80): 468 % of control
T/C (dose: 40.0 mg/kg/injection, schedule: Q01DX001 (ip), vehicle: saline with Tween-80): 468 % of control
T/C (dose: 60.0 mg/kg/injection, schedule: Q01DX001 (ip), vehicle: saline with Tween-80): 382 % of control
T/C (dose: 90.0 mg/kg/injection, schedule: Q01DX001 (ip), vehicle: saline with Tween-80): 86 % of control

COC(=N)c1nn(C2OC(CO)C(O)C2O)c2ncnc(N)c12 (centres undefined)
T/C (dose: 100.0 mg/kg/injection, schedule: Q01DX005 (ip), vehicle: saline): 115 % of control
T/C (dose: 200.0 mg/kg/injection, schedule: Q01DX005 (ip), vehicle: saline): 153 % of control
T/C (dose: 400.0 mg/kg/injection, schedule: Q01DX005 (ip), vehicle: saline): 164 % of control
